Measured values as given in patent US6429204B1, “Method of inhibiting cancer growth” (University of Miami, priority 1997, dated 2002).
Where two headings read alike, the source gives them in different places.

Key:
[1] = tested on: E-10 Cells; experiment: MTS cytotoxicity assay, E-10; settings: two days
[2] = target: T1, Gelatinase B (Homo sapiens, UniProt P14780); experiment: Zymography with densitometry of C8161 conditioned medium, gelatinase B; assay type: cell-based; settings: 50 μg/mL, 24 hr
T1 construct: endogenous in cells; host or cells: C8161
T1 sequence (P14780 94-707): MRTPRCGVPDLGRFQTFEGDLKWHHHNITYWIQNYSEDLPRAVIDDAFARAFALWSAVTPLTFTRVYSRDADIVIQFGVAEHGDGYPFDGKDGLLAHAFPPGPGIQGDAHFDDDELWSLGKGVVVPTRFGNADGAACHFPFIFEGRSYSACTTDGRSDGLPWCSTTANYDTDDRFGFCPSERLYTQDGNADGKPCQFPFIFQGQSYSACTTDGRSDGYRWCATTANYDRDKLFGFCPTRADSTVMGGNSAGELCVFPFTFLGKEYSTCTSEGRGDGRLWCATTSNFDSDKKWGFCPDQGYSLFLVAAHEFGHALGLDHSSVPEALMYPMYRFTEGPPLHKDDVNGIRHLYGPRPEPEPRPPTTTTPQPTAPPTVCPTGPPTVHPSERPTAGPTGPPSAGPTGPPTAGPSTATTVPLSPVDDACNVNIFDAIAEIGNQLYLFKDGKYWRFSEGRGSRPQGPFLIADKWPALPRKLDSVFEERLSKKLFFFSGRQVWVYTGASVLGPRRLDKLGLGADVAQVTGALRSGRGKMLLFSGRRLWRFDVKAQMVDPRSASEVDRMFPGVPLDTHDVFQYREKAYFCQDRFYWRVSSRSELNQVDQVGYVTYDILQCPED
Method: (§1) Six hundred thousand (6×10^5) C8161 cells were seeded per well in a 12-well dish coated with a laminin/collagen IV/gelatin matrix in DMEM plus Mito+ and 0.1% gentamicin sulfate. After approximately 1 hr incubation to allow the cells to attach, 50 μg/mL of either doxycycline or one of the other CMTs was added per well and the dish then placed in a 37° C. humidified 5% CO2 incubator. After 24 hr, the supernatants were removed and centrifuged to remove any cells or debris. One volume of Laemmli sample buffer minus reductant was added to two volumes of the medium, and this sample electrophoresed without prior heating or boiling on a 10% SDS-PAGE containing 0.1% gelatin (samples normalized based on the same number of cells per volume of medium per time of incubation). After electrophoresis, the gels were washed with gentle shaking at room temperature for 30 min in 50 mM Tris-HCl (pH 7.5) plus 2.5% TRITON® X100 plus 50 μg/mL of the corresponding CMT used in the original treatment. The gel was then placed in incubation buffer (50 mM Tris-Cl/10 mM CaCl2/150 mM NaCl/0.05% NaN3) also containing 50 μg/mL of the corresponding CMT, and incubated at 37° C. for 20-24 hr. The gels were stained with Coomassie BBR-250, then destained with 10% methanol/10% acetic acid in water until the wash remained clear. A photographic negative of the gel was digitized using a video camera and Snappy Video Snapshot system (Play Inc., Rancho Cordova, Calif.). An integrated density was determined for each of the cleared zones of proteolysis using the software ImagePC8α (freely available from the National Institutes of Health), and the corresponding changes in gelatinolytic activities reported compared to the control samples normalized to a value of 1.0.

[3] = tested on: COLO 205 Cells; experiment: MTS cytotoxicity assay, COLO 205; settings: two days
[4] = tested on: C8161 cells; experiment: C8161 cell proliferation (doubling time); assay type: cell-based, human; settings: 50 μg/mL; for Doubling Time: on plastic, DMSO 22 hr; for increase of doubling time: versus DMSO
Method: Cell Culture and Maintenance: C8161 cells, a human melanoma cell line, were maintained in Dulbecco's modified Eagle's medium (DMEM; […] These cells were routinely screened for Mycoplasma contamination using the GenProbe Rapid Detection System (Fisher Scientific; Chicago, Ill.). Chemically Modified Tetracyclines: Fresh stock solutions of the chemically modified tetracycline compounds (2 mg/mL) were prepared for each experiment by hydrating in 2% dimethyl sulfoxide (DMSO)/water pH 10, then adjusting to pH 7.4 using 1.0 M HCl. […] Sigma Chem. Co.; control) or 50 μg/mL of doxycycline or the other CMTs (three wells on each plate per compound). […] The doubling time for C8161 cells in the presence of each compound was then determined and compared to the DMSO treated cells (control).

[5] = tested on: C8161 cells; experiment: In vivo metastasis assay, C8161 cells i.v. in SCID mice; settings: for Number of Lung Metastases/Mouse: Average ± SEM, control 231 ± 49; for effect on number of lung metastases (significance): at either dosage, p>0.05
Method: Immunosuppressed mice (athymic nude/nude SCID females from Harlan Sprague Dawley) were housed in autoclaved cages with microisolator tops, and all manipulations of the animals were done in a laminar flow hood after wiping down both the hood, gloves and cages with ABQ sterilant. The mice were fed sterile Pico Lab Chow (Purina) and autoclaved St. Louis tap water. […] The compounds and control (sterile water plus 2% carboxymethyl cellulose) were kept stored at −80° C. wrapped in aluminum foil to prevent any light induced changes, and each day's supply was thawed just prior to use. Four compounds were tested for their effects on the metastatic potential of C8161 cells injected intravenously via the tail vein: […] The concentration of the compounds in the vials used to give the 100 mg/kg doses were 2.5 times that in the 40 mg/kg dose so that approximately the same volume was used in both cases, approximately 0.5 mL/animal. The experiments started with nine animals per group at day −4. On day zero, 2×10^5 C8161 cells in cold Hank's Balanced Salt Solution (HBSS) were injected intravenously via tail vein inoculation. The experiment was continued for an additional 24 days, at which time the animals were sacrificed and their lungs removed and fixed in a solution of Bouins/formaldehyde (5 parts:1 part). Tumors were quantitated on the entire surface of the lungs by rotating the lungs and counting the tumors on each lobe using a 6× magnifying glass. Statistical analysis was performed using the statistical package of Microsoft's Excel spreadsheet software.

[6] = tested on: C8161 human melanoma cells; experiment: In vitro invasion assay (MICS), laminin/collagen IV/gelatin matrix-coated filter; assay type: cell-based; settings: 3, 20 and 50 μg/mL; for Percent Inhibition of invasive potential: 48 hr
Method: The in vitro invasive potentials of the control (DMSO only) and chemically-modified tetracycline treated cells were measured using a modified Boyden chamber as previously described (Membrane Invasion Culture System, MICS). An intervening barrier consisting of a polycarbonate filter containing 10 μm pores (Osmonics, Livermore, Calif.) coated with a defined matrix of human laminin/collagen IV/gelatin (Sigma, St. Louis, Mo.) was used for these studies. […] Doxycycline or individual CMTs were then added to different wells of the chamber at 3, 20 or 50 μg/mL 2 hr post-seeding and daily during the assay. After 48 hr, the cells were removed from the lower wells and the number of invasive cells was determined and compared to the original number of cells seeded into the upper wells. Where appropriate, data were corrected for proliferation during the period of the in vitro assay.

[7] = target: T2, Gelatinase A (Homo sapiens, UniProt P08253); experiment: Zymography with densitometry of C8161 conditioned medium, gelatinase A; assay type: cell-based; settings: 50 μg/mL, 24 hr
T2 construct: endogenous in cells; host or cells: C8161
T2 sequence (P08253 110-660): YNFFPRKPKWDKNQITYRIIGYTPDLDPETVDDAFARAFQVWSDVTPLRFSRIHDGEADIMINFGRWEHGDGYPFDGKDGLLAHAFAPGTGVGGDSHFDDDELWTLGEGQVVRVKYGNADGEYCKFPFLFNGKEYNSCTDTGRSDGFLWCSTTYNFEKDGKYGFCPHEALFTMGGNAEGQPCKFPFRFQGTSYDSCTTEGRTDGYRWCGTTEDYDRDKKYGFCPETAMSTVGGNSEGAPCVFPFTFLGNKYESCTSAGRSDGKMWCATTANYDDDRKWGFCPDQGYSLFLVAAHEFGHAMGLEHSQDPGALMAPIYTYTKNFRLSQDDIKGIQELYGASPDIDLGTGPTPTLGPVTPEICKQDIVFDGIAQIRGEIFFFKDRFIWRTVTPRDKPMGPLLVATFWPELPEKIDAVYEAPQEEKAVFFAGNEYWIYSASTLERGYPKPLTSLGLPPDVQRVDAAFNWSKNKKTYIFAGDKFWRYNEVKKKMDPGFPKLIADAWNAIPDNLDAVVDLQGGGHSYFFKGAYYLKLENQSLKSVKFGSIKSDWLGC
Method: as §1

[8] = tested on: COLO 205 Cells
[9] = tested on: E-10 Cells
[10] = tested on: TSU-PR1 cells; experiment: Matrigel invasion assay (Boyden chamber, MTT), TSU-PR1; assay type: cell-based, human; settings: TSU-PR1, 48 hr
Method: In this method, 4×10^5 tumor cells were plated on the top chamber of the Boyden chemotaxis assay chambers (Costar Transwell plates). The bottom side of the chamber was a 12 μm-pore polycarbonate filter layered with 0.5 mm thick layer of Matrigel. The bottom well contained a chemoattractant, a serum-free culture-conditioned medium from FHS 733 cells, a line of human fetal lung fibroblasts (ATCC No. HTB-157). Cancer cells (4×10^5) were plated in the top wells of the plates. Doxycycline or CMTs were diluted in a serum-free medium to 5 μg/mL, and were added to both top and bottom chambers. […] After 48 hr incubation, MTT was added to both the top and bottom wells (0.5 mg/mL), and incubation was continued for 4 hr. Wells were then emptied, and the cells from the undersides of the filter were pooled with those in the bottom wells with a filter tip. The reduced MTT (formazan) from top and bottom wells was solubilized with DMSO overnight, and absorbance (O.D.) at 515 nm was measured. The ratio of the O.D. from the bottom wells to that of the total (i.e., O.D. of top plus bottom wells) was taken as the invasive potential. […] The MTT assay procedure also normalizes the coincident inhibition due to the cytotoxic effects of the agents under investigation. Results presented are from three independent experiments.

SMILES | percent cytotoxicity ([1]; 5 μM) | percent cytotoxicity ([1]; 10 μM) | percent cytotoxicity ([1]; 20 μM) | percent cytotoxicity ([1]; 50 μM) | percent cytotoxicity ([1]; 100 μM) | Gelatinase B, integrated density normalized to control 1.00 [2] | percent cytotoxicity ([3]; 5 μM) | percent cytotoxicity ([3]; 10 μM) | percent cytotoxicity ([3]; 20 μM) | percent cytotoxicity ([3]; 50 μM) | percent cytotoxicity ([3]; 100 μM) | Doubling Time [4] | increase of doubling time [4] | Number of Lung Metastases/Mouse ([5]; 40 mg/kg daily intragastric) | effect on number of lung metastases (significance) [5] | Type of Inhibition [6] | Percent Inhibition of invasive potential [6] | Gelatinase A, integrated density normalized to control 1.00 [7] | also measured
C[C@H]1c2cccc(O)c2C(O)=C2C(=O)[C@]3(O)C(O)=C(C(N)=O)C(=O)C[C@@H]3[C@@H](O)[C@@H]21 [CMT-8, 6α-deoxy-5-hydroxy-4-de(dimethylamino)tetracycline] | 0% | 0% | 0% | 0% | 0% | 1.05 | 0% | 20.5% | 35.5% | 44.4% | 50% | 26 h | approximately 18% | 186 ± 60 | did not significantly reduce the number of lung metastases | non-dose | ˜12% | 0.70 | 
CC1(O)c2c(Cl)ccc(O)c2C(=O)C2=C(O)C3(O)C(=O)C(C(N)=O)=C(O)CC3CC21 (stereo not drawn) [CMT-4, 4-de(dimethylamino)-7-chlorotetracycline] |  |  |  |  |  | 0.12 |  |  |  |  |  | 22 h | did not affect the doubling time |  |  | non-dose | ˜20% | 0.75 | percent cytotoxicity ([8]; 5 µM): 1.8%; percent cytotoxicity ([8]; 10 µM): 6.8%; percent cytotoxicity ([8]; 20 μM): 25.3%; percent cytotoxicity ([8]; 50 µM): 73.3%; percent cytotoxicity ([8]; 100 µM): 81.9%; percent cytotoxicity ([9]; 5 µM): 9%; percent cytotoxicity ([9]; 10 µM): 16.7%; percent cytotoxicity ([9]; 20 μM): 0.8%; percent cytotoxicity ([9]; 50 µM): 0%; percent cytotoxicity ([9]; 100 µM): 0%
CC1(O)c2cccc(O)c2C(=O)C2=C(O)C3C(=O)C(C(N)=O)=C(O)CC3CC21 (stereo not drawn) [CMT-7, 4-de(dimethylamino)-12α-deoxytetracycline] | 0% | 0% | 0% | 0% | 8.3% | 1.22 | 0% | 0% | 0% | 0% | 29.4% | 24 h | approximately 9% | 136 ± 107 | did not significantly reduce the number of lung metastases | non | 15-55% | 0.17 | Number of Lung Metastases/Mouse ([5]; 100 mg/kg daily intragastric): 166 ± 101; 50% inhibitory dose (IC50), Matrigel invasion [10]: > 100 µg/mL
